# Laboratory results from US12378193B2, “Anti-arrhythmicity agents” (The Regents of the University of California, priority 2014, dated 2025).
# Test system: Zebrafish tremblor mutant
# Assay: Zebrafish screening: injection into tremblor mutants
# Assay type: in vivo
# Settings: Table 1
# Description: (§1) We screened our above mention library by using tremblor mutants Zebrafish embryos. […] Compounds were screened for their ability to suppress cardiac fibrillation and/or restore rhythmic synchronized contraction. Briefly, we treated the embryo by soaking in 20 μM solution or injecting compounds after 24 hours fertilization and observed the phenotype after 48 hours. Further, we determined the structure-activity relationship (SAR) between the active compound's structures and the ability to suppress cardiac fibrillation and/or restore rhythmic synchronized contraction.
# (§2) Zebrafish tremblor mutant eggs were collected at 1 cell stages. 1 nL of compound in Daneu's buffer were injected into the embryo. After 24 hours the embryo was arrayed in 24-well plates (20 twenty embryos/well) in 500 μL buffer. After 48 hour fertilization in 29° C., phenotypic changes were observed using a high magnification dissecting microscope.
row,Compound,Injection into tremblor Mutants: % Rescued
1,CCOC(=O)C1=CCN(S(=O)(=O)c2ccccc2F)C1c1ccc(Cl)cc1 (stereo not shown) [F7-I-H01],12/83%
2,CCOC(=O)C1=CCN(S(=O)(=O)c2cccc(F)c2)C1c1ccc(F)cc1 (stereo not shown) [F7-II-B12],21/76%

# Same assay, conditions: Table 4, injection into tremblor mutants
row,Compound,Screen 1 Rescue percent
1,CCOC(=O)C1=CCN(S(=O)(=O)c2ccccc2F)C1c1ccc(Cl)cc1 (stereo not shown) [F7-I-H01],83%
2,CCOC(=O)C1=CCN(S(=O)(=O)c2cccc(F)c2)C1c1ccc(F)cc1 (stereo not shown) [F7-II-B12],76%

# Same assay, conditions: Table 4, over all screens
row,Compound,Average rescue ratio
1,CCOC(=O)C1=CCN(S(=O)(=O)c2ccccc2F)C1c1ccc(Cl)cc1 (stereo not shown) [F7-I-H01],83%
2,CCOC(=O)C1=CCN(S(=O)(=O)c2cccc(F)c2)C1c1ccc(F)cc1 (stereo not shown) [F7-II-B12],76%

# Test system: Zebrafish tremblor mutant
# Assay: Zebrafish screening: soaking
# Assay type: in vivo
# Settings: Table 1, tremblor mutants, 20 μM
# Description: as §1
# Zebrafish tremblor mutant eggs were collected after fertilization, and arrayed in 24-well plates (20 twenty embryos/well) in 500 μL buffer. After 24 hour fertilization in 29° C., 20 μM testing compound was added and using E3 buffer as background control. After 48 hour fertilization in 29° C., phenotypic changes were observed using a high magnification dissecting microscope.
row,Compound,Soaking: % Rescued
1,CCOC(=O)C1=CCN(S(=O)(=O)c2ccc(C)cc2)C1c1ccc(C(=O)OCC)cc1 (racemic) [F7-I-A06],17/88%
2,CCOC(=O)C1=CCN(S(=O)(=O)c2ccc(C)cc2)C1c1cccc(C)c1 (racemic) [F7-I-B12],19/78%
3,CCOC(=O)C1=CCN(S(=O)(=O)c2ccc(C)cc2)C1c1ccc(F)cc1 (stereo not shown) [F7-I-B04],8/75%
4,CCOC(=O)C1=CCN(S(=O)(=O)c2ccc(Cl)cc2)C1c1ccc(Cl)cc1 (stereo not shown) [F7-I-B07],18/80%

# Same assay, conditions: Table 2, tremblor mutant soaked in 20 μM test compounds
row,Compound,Rescue percent
1,CCOC(=O)C1=CCN(S(=O)(=O)c2ccc(C)cc2)C1c1ccc(C(=O)OCC)cc1 (racemic) [F7-I-A06],88%
2,CCOC(=O)C1=CCN(S(=O)(=O)c2ccc(C)cc2)C1c1cccc(C)c1 (racemic) [F7-I-B12],78%
3,CCOC(=O)C1=CCN(S(=O)(=O)c2ccc(C)cc2)C1c1ccccc1 (racemic) [F7],72%
4,Cc1ccc(S(=O)(=O)N2CC=C(C(=O)O)C2c2ccccc2)cc1 (stereo not shown) [F7 acid],21%
5,CCOC(=O)C1=CCN(S(=O)(=O)c2ccc(C)cc2)C1c1ccc(F)cc1 (stereo not shown) [F7-I-B04],75%
6,CCOC(=O)C1=CCN(S(=O)(=O)c2ccc(Cl)cc2)C1c1ccc(Cl)cc1 (stereo not shown) [F7-I-B07],80%

# Test system: Zebrafish embryo injected with morpholino to NCX1h
# Assay: Zebrafish screening: injection with morpholino to NCX1h
# Assay type: in vivo
# Settings: Table 1
# Description: as §1
# as §2, with “Zebrafish” for “Zebrafish tremblor mutant”, “buffer and 1 nL of morpholino (1 mM) to NCX1h was” for “buffer were”
row,Compound,Injection with Morpholino: % Rescued
1,CCOC(=O)C1=CCN(S(=O)(=O)c2ccccc2F)C1c1ccc(Br)cc1 (racemic) [Formula Im],8/88%
2,CCOC(=O)C1=CCN(S(=O)(=O)c2ccccc2F)C1c1ccc(Cl)cc1 (stereo not shown) [F7-I-H01],8/63%
3,CCOC(=O)C1=CCN(S(=O)(=O)c2ccccc2F)C1c1ccc(F)cc1 (stereo not shown) [Formula In],8/88%
4,CCOC(=O)C1=CCN(S(=O)(=O)c2ccccc2F)C1c1ccc(C)cc1 (stereo not shown) [Formula Io],8/75%

# Same assay, conditions: Table 3, morpholino mutants
row,Compound,Rescue percent
1,CCOC(=O)C1=CCN(S(=O)(=O)c2ccccc2F)C1c1ccc(Cl)cc1 (stereo not shown) [F7-I-H01],63%

# Test system: not listed separately
# Assay: Defibrillator activity of efsevin enantiomers
# Settings: not given
row,Compound,defibrillator activity of efsevin: active enantiomer
1,CCOC(=O)C1=CCN(S(=O)(=O)c2ccc(C)cc2)[C@@H]1c1ccccc1 [(R)-Efsevin],Active Antipode
